SMILES strings stand for the structures. Some results are limits rather than exact numbers.

These results are taken from patent US9079870B2, “Thiol mediated/activated prodrugs of sulfur dioxide (SO2) having anti-bacterial activity” (priority 2012, dated 2015).

The nature of series [1]: Pararosaniline-based colorimetric assay for sulfur dioxide. In kind it is physicochemical. The conditions noted are these: detected with pararosaniline-based colorimetric assay; 10 equiv cysteine, pH 7.4.
The test system of series [2] is E. feacalis ATCC 29212. Briefly: Antibacterial activity (MIC) against E. feacalis. Type of series: cell-based. The conditions noted are these: Enterococcus faecalis, ATCC29212; read-out: MIC (μg/mL) E. feacalis ATCC 29212. From the text:
(§1) The antibacterial activity of thiol mediated/activated prodrugs of SO2 i.e. 2,4-dinitrophenylsulfonamide related compounds against the gram positive pathogenic bacteria selected from the group S. aureus, E. feacalis is given herein below Table 2a.

Series [3] in a line: Kinetics of thiol-mediated decomposition of compound (7), HPLC and ion chromatography. The following applies: curve fitting, FIG. 3. Type of series: physicochemical. As for the experimental part: FIG. 3 depicts kinetics of decomposition of compound (7) to produce sulfur dioxide and 2-hydroxyethylthio-2,4-dinitrobenzene (7y), where disappearance of compound (7) and appearance of (7y) was followed by HPLC analysis. Production of sulfite was monitored by ion chromatography analysis. Curve fitting afforded first order rate constant for: appearance of (7y) as 0.011 min^−1; and appearance of sulfite as 0.014 min^−1.
Alternatively, a detailed kinetic analysis of thiol-mediated decomposition and sulfite generation from compound (7) is represented in FIG. 1b, wherein compound (7) decomposed to simultaneously produce sulfur dioxide, and by-products like 4-methoxyaniline (7x) and 2-hydroxyethylthio-2,4-dinitrobenzene (7y). Further the rate determining step in the said mechanism was the step of protonation (either through proton transfer or addition of proton).

The test system of series [4] is Mycobacterium tuberculosis H37Rv strain. The series is described as follows: Antimycobacterial activity assay (MIC, 7H11 agar). In kind it is cell-based. The following applies: Mycobacterium tuberculosis, H37RV, Mtb H37Rv.
Series [5] is described as follows: Cysteine-activated sulfur dioxide release, ion chromatography analysis of sulfite.
In series [6] the test system is S. aureus ATCC 29213. Briefly: Antibacterial activity (MIC) against S. aureus. Type of series: cell-based. The following applies: Staphylococcus aureus, ATCC29213; read-out: MIC (μg/mL) S. aureus ATCC 29213.
Text: as §1

The conditions of series [7]: Table 4; values are for the amine without a DNs group; cited from earlier work.
The conditions of series [8]: buffer, 100 µM, pH 7.4.

Consider `COc1ccc(NS(=O)(=O)c2ccc([N+](=O)[O-])cc2[N+](=O)[O-])cc1` [Compound 7, N-(4-methoxyphenyl) 2,4-dinitrophenylsulfonamide], for which the SO2 source entry in series [1] is given as “yes”. Further, the MIC in series [2] is > 16 µg/mL; in series [4] (672 h, Table 3, inhibit 99% of bacterial growth), ≤ 25 µg/mL; in series [4] (Table 2b) it was 4.4 µM; in series [4] (Table 2b, inhibit 99% of bacterial growth) it was 1.56 µg/mL; in series [4] (Table 3), 4.4 µM; in series [4] (Table 3, inhibit 99% of bacterial growth) it was 1.56 µg/mL. Also, the MIC in series [6] was > 16 µg/mL. In addition, in series [3] (HPLC analysis), the “first order rate constant for appearance of (7y)” value was 0.011 min⁻¹. Further, the “first order rate constant for appearance of sulfite” value in series [3] (ion chromatography analysis) came to 0.014 min⁻¹. Besides, the “SO2 yield, 5 min” value in series [5] (5 min after treatment of compound (100 1M) with 10 equiv of cysteine in pH 7.4 phosphate buffer) was 39 µM. Moreover, the “SO2 yield, 30 min” value came out at 80 µM in series [5] (30 min after treatment of compound (100 1M) with 10 equiv of cysteine in pH 7.4 phosphate buffer) and 79.5 µM in series [5] (Table 3, 30 min after treatment of compound (100 μM) with 10 equiv of cysteine in pH 7.4 phosphate buffer). Further, in series [5] (compound (100 μM), cysteine (10 equiv), pH 7.4 phosphate buffer (20 mM)), the “K (min−1), rate of sulfite release” value was determined as 0.0575 min⁻¹. Further, the “Max SO2 yield” value in series [5] (sum of sulfite and sulfate, compound 100 μM, cysteine 10 equiv, pH 7.4) came to 97 µM. The pKaH in series [7] is on record as 5.29. In series [8], the “t1/2 (min) of SO2 generation” value is 12 min.
